Data reported in the supplement of paper PMC10883282.

Columns and labels:
Assay in all cases: relative viability vs DMSO control (72 h) (fraction); higher = more viable cells
[1] = test system: SK-LMS-1
How it was run: (§1)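 After seeding at densities set for 80–90% confluence in 384-well plates, sarcoma cell lines waited 24 h before 2.5 µl of serially diluted compound was added. Source plates held 10 mM down to 0.0002 mM. Plates were incubated 72 h at 37 °C with 5% CO2, with 0.1% DMSO vehicle and a 5 µM positive control, and relative viability was taken from ATPLite as percent growth averaged over up to triplicate wells, with 1 set as full and 0 as none.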

[2] = test system: VA-ES-BJ
How it was run: as §1

[3] = test system: KHOS-240S
How it was run: as §1

[4] = test system: A204
How it was run: as §1

[5] = test system: MES-SA
How it was run: as §1

[6] = test system: SW1353
How it was run: as §1

[7] = test system: SK-ES-1
How it was run: as §1

[8] = test system: RD
How it was run: as §1

[9] = test system: SW872
How it was run: as §1

[10] = test system: G401
How it was run: as §1

[11] = test system: HS729
How it was run: as §1

[12] = test system: SW982
How it was run: as §1

COc1cc(Nc2ncc3c(n2)-c2ccc(Cl)cc2C(c2c(F)cccc2OC)=NC3)ccc1C(=O)O [Alisertib]
Settings | relative viability
[1], 0.00017 µM | 1.03
[1], 0.00051 µM | 1.02
[1], 0.00152 µM | 1.01
[1], 0.00457 µM | 1.02
[1], 0.01372 µM | 1
[1], 0.04115 µM | 0.806
[1], 0.1235 µM | 0.772
[1], 0.3704 µM | 0.78
[1], 1.111 µM | 0.803
[1], 3.333 µM | 0.815
[1], 10 µM | 0.678
[2], 0.00017 µM | 0.995
[2], 0.00051 µM | 0.997
[2], 0.00152 µM | 0.984
[2], 0.00457 µM | 0.992
[2], 0.01372 µM | 0.969
[2], 0.04115 µM | 0.919
[2], 0.1235 µM | 0.747
[2], 0.3704 µM | 0.604
[2], 1.111 µM | 0.571
[2], 3.333 µM | 0.523
[2], 10 µM | 0.505
[3], 0.00017 µM | 1.04
[3], 0.00051 µM | 1.04
[3], 0.00152 µM | 1.03
[3], 0.00457 µM | 1.01
[3], 0.01372 µM | 0.996
[3], 0.04115 µM | 0.884
[3], 0.1235 µM | 0.807
[3], 0.3704 µM | 0.758
[3], 1.111 µM | 0.739
[3], 3.333 µM | 0.681
[3], 10 µM | 0.622
[4], 0.00017 µM | 1.07
[4], 0.00051 µM | 1.073
[4], 0.00152 µM | 1.07
[4], 0.00457 µM | 1.03
[4], 0.01372 µM | 1.07
[4], 0.04115 µM | 1.06
[4], 0.1235 µM | 0.882
[4], 0.3704 µM | 0.796
[4], 1.111 µM | 0.768
[4], 3.333 µM | 0.7276
[4], 10 µM | 0.711
[5], 0.00017 µM | 0.914
[5], 0.00051 µM | 0.932
[5], 0.00152 µM | 0.9332
[5], 0.00457 µM | 0.933
[5], 0.01372 µM | 0.9174
[5], 0.04115 µM | 0.621
[5], 0.1235 µM | 0.363
[5], 0.3704 µM | 0.353
[5], 1.111 µM | 0.328
[5], 3.333 µM | 0.325
[5], 10 µM | 0.316
[6], 0.00017 µM | 0.987
[6], 0.00051 µM | 0.972
[6], 0.00152 µM | 0.969
[6], 0.00457 µM | 0.961
[6], 0.01372 µM | 0.976
[6], 0.04115 µM | 0.921
[6], 0.1235 µM | 0.886
[6], 0.3704 µM | 0.908
[6], 1.111 µM | 0.85
[6], 3.333 µM | 0.817
[6], 10 µM | 0.685
[7], 0.00017 µM | 1.01
[7], 0.00051 µM | 1.05
[7], 0.00152 µM | 1.05
[7], 0.00457 µM | 1.01
[7], 0.01372 µM | 0.965
[7], 0.04115 µM | 0.748
[7], 0.1235 µM | 0.197
[7], 0.3704 µM | 0.0886
[7], 1.111 µM | 0.0443
[7], 3.333 µM | 0.0464
[7], 10 µM | 0.0555
[8], 0.00017 µM | 1.08
[8], 0.00051 µM | 1.1
[8], 0.00152 µM | 1.09
[8], 0.00457 µM | 1.06
[8], 0.01372 µM | 1.07
[8], 0.04115 µM | 1.04
[8], 0.1235 µM | 0.863
[8], 0.3704 µM | 0.679
[8], 1.111 µM | 0.517
[8], 3.333 µM | 0.517
[8], 10 µM | 0.474
[9], 0.00017 µM | 1.02
[9], 0.00051 µM | 0.974
[9], 0.00152 µM | 0.989
[9], 0.00457 µM | 1.03
[9], 0.01372 µM | 1.01
[9], 0.04115 µM | 1.01
[9], 0.1235 µM | 0.959
[9], 0.3704 µM | 0.731
[9], 1.111 µM | 0.759
[9], 3.333 µM | 0.738
[9], 10 µM | 0.661
[10], 0.00017 µM | 1.01
[10], 0.00051 µM | 0.979
[10], 0.00152 µM | 0.984
[10], 0.00457 µM | 0.966
[10], 0.01372 µM | 0.892
[10], 0.04115 µM | 0.845
[10], 0.1235 µM | 0.756
[10], 0.3704 µM | 0.706
[10], 1.111 µM | 0.705
[10], 3.333 µM | 0.637
[10], 10 µM | 0.563
[11], 0.00017 µM | 0.938
[11], 0.00051 µM | 0.943
[11], 0.00152 µM | 0.932
[11], 0.00457 µM | 0.888
[11], 0.01372 µM | 0.859
[11], 0.04115 µM | 0.879
[11], 0.1235 µM | 0.793
[11], 0.3704 µM | 0.77
[11], 1.111 µM | 0.733
[11], 3.333 µM | 0.689
[11], 10 µM | 0.716
[12], 0.00017 µM | 1.01
[12], 0.00051 µM | 1.01
[12], 0.00152 µM | 1.03
[12], 0.00457 µM | 1.02
[12], 0.01372 µM | 1.03
[12], 0.04115 µM | 0.968
[12], 0.1235 µM | 0.583
[12], 0.3704 µM | 0.464
[12], 1.111 µM | 0.37
[12], 3.333 µM | 0.348
[12], 10 µM | 0.361
